Results published in patent US20210269451A1, “PYRIDINYL HETEROCYCLYL COMPOUNDS FOR THE TREATMENT OF AUTOIMMUNE DISEASE” (Hoffmann-La Roche Inc., priority 2018, published 2021).

What was measured:
human TLR8 = target: T1, human TLR8 (Homo sapiens, UniProt Q9NR97); assay: HEK293-Blue-hTLR-8 cells assay; type: cell-based; settings: HEK293-Blue-hTLR8 cells, R848 stimulation, 20 hrs, SEAP reporter; read-out: HEK/hTLR8 IC50
T1 construct: host or cells: HEK293-Blue-hTLR-8 (HEK293)
T1 sequence (Q9NR97 27-1041): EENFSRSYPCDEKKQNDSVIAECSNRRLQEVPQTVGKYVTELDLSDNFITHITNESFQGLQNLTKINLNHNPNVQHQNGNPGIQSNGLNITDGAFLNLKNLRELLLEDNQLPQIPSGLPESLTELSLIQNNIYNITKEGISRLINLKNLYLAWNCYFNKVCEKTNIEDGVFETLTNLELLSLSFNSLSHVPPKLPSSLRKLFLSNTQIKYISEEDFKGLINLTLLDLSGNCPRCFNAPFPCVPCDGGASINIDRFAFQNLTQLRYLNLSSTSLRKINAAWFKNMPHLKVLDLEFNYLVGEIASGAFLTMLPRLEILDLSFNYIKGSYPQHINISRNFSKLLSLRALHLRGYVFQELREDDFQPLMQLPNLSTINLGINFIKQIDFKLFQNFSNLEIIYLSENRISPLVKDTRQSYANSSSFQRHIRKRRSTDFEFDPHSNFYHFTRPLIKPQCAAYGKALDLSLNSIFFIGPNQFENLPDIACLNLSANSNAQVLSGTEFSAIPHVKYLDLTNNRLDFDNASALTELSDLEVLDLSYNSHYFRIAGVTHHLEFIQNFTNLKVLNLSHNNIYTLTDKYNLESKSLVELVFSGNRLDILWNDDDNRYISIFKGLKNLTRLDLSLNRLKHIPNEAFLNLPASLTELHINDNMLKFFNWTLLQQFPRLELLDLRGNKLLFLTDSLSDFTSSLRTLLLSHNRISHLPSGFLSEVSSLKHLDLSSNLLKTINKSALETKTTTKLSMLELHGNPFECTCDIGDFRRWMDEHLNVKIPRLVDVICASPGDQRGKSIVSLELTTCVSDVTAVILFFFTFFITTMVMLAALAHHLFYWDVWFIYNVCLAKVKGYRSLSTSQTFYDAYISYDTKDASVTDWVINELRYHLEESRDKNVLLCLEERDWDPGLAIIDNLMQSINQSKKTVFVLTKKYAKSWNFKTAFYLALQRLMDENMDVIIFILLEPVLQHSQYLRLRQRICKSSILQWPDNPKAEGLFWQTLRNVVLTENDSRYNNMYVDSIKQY
Procedure: The following tests were carried out in order to determine the activity of the compounds of formula (I) and (Ia) in HEK293-Blue-hTLR-7/8/9 cells assay.
HEK293-Blue-hTLR-8 cells assay:
A stable HEK293-Blue-hTLR-8 cell line was purchased from InvivoGen (Cat. #: hkb-htlr8, San Diego, Calif., USA). These cells were originally designed for studying the stimulation of human TLR8 by monitoring the activation of NE-κB. A SEAP (secreted embryonic alkaline phosphatase) reporter gene was placed under the control of the IFN-β minimal promoter fused to five NE-κB and AP-1-binding sites. The SEAP was induced by activating NE-κB and AP-1 via stimulating HEK-Blue hTLR8 cells with TLR8 ligands. Therefore the reporter expression was declined by TLR8 antagonist under the stimulation of a ligand, such as R848, for incubation of 20 hrs. The cell culture supernatant SEAP reporter activity was determined using QUANTI-Blue™ kit (Cat. #: rep-qbl, Invivogen, San Diego, Ca, USA) at a wavelength of 640 nm, a detection medium that turns purple or blue in the presence of alkaline phosphatase.
HEK293-Blue-hTLR8 cells were incubated at a density of 250,000-450,000 cells/mL in a volume of 170 μL in a 96-well plate in Dulbecco's Modified Eagle's medium (DMEM) containing 4.5 g/L glucose, 50 U/mL penicillin, […], […], 2 mM L-glutamine, 10% (v/v) heat-inactivated fetal bovine serum with addition of 20 μL test compound in a serial dilution in the presence of final DMSO at 1% and 10 μL of 60 uM R848 in above DMEM, perform incubation under 37° C. in a CO2 incubator for 20 hrs. Then 20 μL of the supernatant from each well was incubated with 180 μL Quanti-blue substrate solution at 37° C. for 2 hrs and the absorbance was read at 620˜655 nm using a spectrophotometer. The signalling pathway that TLR8 activation leads to downstream NE-κB activation has been widely accepted, and therefore similar reporter assay was modified for evaluating TLR8 antagonist.

CYP2D6 = target: T2, CYP2D6 (Homo sapiens, UniProt P10635); assay: CYP inhibition assay in human liver microsome; type: in vitro ADME; settings: human liver microsomes, probe dextromethorphan, dextromethorphan substrate, percentage inhibition <0: not or weak inhibitor, read-out: CYP 2D6 inhibition %@10 μM
T2 construct: tissue BD-Gentest 452117; host or cells: human liver microsomes
Procedure: The compounds would be desirable to have minimal DDI liabilities. Therefore, the effects of compounds of formula (I) or (Ia) on CYP2D6 are determined.
This is a high throughput screening assay used for assessment of reversible inhibition of CYP2D6 activity of test compounds in human liver microsome (HLM) in early discovery stage.
10 mM DMSO stock solutions of test compounds were diluted in DMSO to generate 2 mM intermediate stock solution. 250 nL of intermediate stock solution were transferred in duplicate into 3 separate 384 well microtitre plates (assay-ready plates). A mixture of HLM and each substrate was made up. 45 μL of HLM substrate mix was then transferred to each well of an assay ready plate and mixed. The negative (solvent) and positive control (standard inhibitor for CYP 2D6) were included in each assay ready plate. The assay ready plate was warmed to 37° C. in an incubator over 10 minutes. 5 μL pre-warmed NADPH regenerating system was added to each incubation well to start the reaction. Final incubation volume was 50 μL. The assay plate then was placed back in the 37° C. incubator. After 10 minutes incubation, incubates were quenched by addition of 50 μL 100% acetonitrile containing internal standards (20 ng/mL D3-Dextrorphan). The supernatants were collected for RapidFire/MS/MS analysis.
RapidFire online solid phase extraction/sample injection system (Agilent) coupled with API4000 triple quadrupole mass spectrometer (AB Sciex) were used for sample analysis. The mobile phase composed of acetonitrile and water supplemented with 0.1% formic acid. A C4 solid phase extraction cartridge is used for sample separation. MS detection is achieved in positive ion MRM mode.
Data analysis Peak areas for substrate, metabolite and internal standard are determined using the RapidFire integrator software (version 3.6.12009.12296). Peak area ratios (PAR) of metabolite and internal standard (stable-labelled metabolite) are then calculated. The measurement window for each experiment is then defined:
PAR (0% activity), average PAR for all incubations containing concentrated inhibitor; Par (100% activity), average PAR for all incubations containing no inhibitor (DMSO controls);
% Activity (test inhibitor)=
=[PAR(test inhibitor)-PAR(0% activity)]/[PAR(100% activity)-PAR(0% activity)];
% Inhibition (test inhibitor)=100-% Activity (test inhibitor).

T2 sequence (P10635 whole entry): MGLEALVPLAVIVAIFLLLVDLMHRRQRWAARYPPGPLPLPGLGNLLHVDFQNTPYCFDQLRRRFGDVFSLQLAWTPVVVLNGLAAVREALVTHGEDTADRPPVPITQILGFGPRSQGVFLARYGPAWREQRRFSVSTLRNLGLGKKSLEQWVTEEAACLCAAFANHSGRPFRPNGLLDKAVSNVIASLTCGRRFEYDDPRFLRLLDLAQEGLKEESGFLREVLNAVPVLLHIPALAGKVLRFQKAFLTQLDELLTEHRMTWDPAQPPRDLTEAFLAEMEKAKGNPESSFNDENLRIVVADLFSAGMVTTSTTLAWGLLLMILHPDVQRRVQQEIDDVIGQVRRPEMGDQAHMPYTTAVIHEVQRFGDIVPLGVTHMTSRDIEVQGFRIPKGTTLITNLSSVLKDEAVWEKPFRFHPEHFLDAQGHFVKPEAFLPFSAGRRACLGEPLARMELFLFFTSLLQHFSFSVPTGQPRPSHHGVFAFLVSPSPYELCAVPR

Row | IC50 (human TLR8) | inhibition at 10 min, 10 μM (CYP2D6) | SMILES
1 | 0.003 µM | -15.5% | C[C@@H]1CN(c2ccc(C#N)c3ncccc23)C[C@H](CN2CC3(C2)CN(c2ccnc(CO)c2)CCO3)O1 [Example 51]
2 | 0.022 µM | 3.5% | Cc1cc(N2C[C@H]3CN(C[C@H]4CN(c5ccc(C#N)c6ncccc56)C[C@@H](C)O4)C[C@H]3C2)cc(CO)n1 [Example 10]
3 | 0.003 µM | 5% | Cc1cc(N2CCOC3CN(CC4CN(c5ccc(C#N)c6ncccc56)CC(C)O4)CC32)cc(C)n1 (single isomer, unassigned) [Example 17B]
4 | 0.014 µM | 8.5% | Cc1cc(N2CC(NC[C@H]3CN(c4ccc(C#N)c5ncccc45)C[C@@H](C)O3)C2)cc(CO)n1 [Example 30]
5 | 0.01 µM | -9.5% | Cc1cc(N2CCC[C@@H](NC[C@H]3CN(c4ccc(C#N)c5ncccc45)C[C@@H](C)O3)C2)cc(CO)n1 [Example 24]
6 | < 0.003 µM | -0.5% | CNc1cc(N2CCN(C[C@H]3CN(c4ccc(C#N)c5ncccc45)C[C@@H](C)O3)CC2)cc(C)n1 [Example 42, 5-[(2R,6S)-2-methyl-6-[[4-[2-methyl-6-(methylamino)-4-pyridyl]piperazin-1-yl]methyl]morpholin-4-yl]quinoline-8-carbonitrile]
7 | 0.015 µM | 2% | C[C@@H]1CN(c2ccc(C#N)c3ncccc23)C[C@H](CN[C@@H]2CCCN(c3ccnc(N)c3)C2)O1 [Example 21, 5-[(2S,6R)-2-[[[(3R)-1-(2-amino-4-pyridyl)-3-piperidyl]amino]methyl]-6-methyl-morpholin-4-yl]quinoline-8-carbonitrile]
8 | 0.004 µM | 0% | Cc1cc(N2CCC[C@H](N(C)C[C@H]3CN(c4ccc(C#N)c5ncccc45)C[C@@H](C)O3)C2)cc(CO)n1 [Example 38]
9 | 0.053 µM | 8% | Cc1cc(NC2CCN(C[C@H]3CN(c4ccc(C#N)c5ncccc45)C[C@@H](C)O3)C2)cc(CO)n1 (some centres unmarked) [Example 6]
10 | 0.081 µM | 6% | Cc1cc(N2CC3(CN(C[C@H]4CN(c5ccc(C#N)c6ncccc56)C[C@@H](C)O4)C3)C2)cc(CO)n1 [Example 1, 5-[(2S,6R)-2-[[2-[2-(hydroxymethyl)-6-methyl-4-pyridyl]-2,6-diazaspiro[3.3]heptan-6-yl]methyl]-6-methyl-morpholin-4-yl]quinoline-8-carbonitrile]
11 | 0.009 µM | -4% | Cc1cc(N2CCC[C@@H](N(C)C[C@H]3CN(c4ccc(C#N)c5ncccc45)C[C@@H](C)O3)C2)cc(CO)n1 [Example 35]
12 | 0.014 µM | 8.5% | Cc1cc(N2CCC[C@H](NC[C@H]3CN(c4ccc(C#N)c5ncccc45)C[C@@H](C)O3)C2)cc(CO)n1 [Example 25]
13 | 0.031 µM | -21.5% | Cc1cc(NC2CN(C[C@H]3CN(c4ccc(C#N)c5ncccc45)C[C@@H](C)O3)C2)cc(C)n1 [Example 7]
14 | 0.038 µM | 2% | C[C@@H]1CN(c2ccc(C#N)c3ncccc23)C[C@H](CN[C@H]2CCCN(c3ccnc(N)c3)C2)O1 [Example 22]
15 | < 0.003 µM | 19% | Cc1cc(N2CCOC3(CN(C[C@H]4CN(c5ccc(C#N)c6ncccc56)C[C@@H](C)O4)C3)C2)cc(C)n1 [Example 14]
16 | 0.012 µM | -3% | Cc1cc(N2CCC23CN(C[C@H]2CN(c4ccc(C#N)c5ncccc45)C[C@@H](C)O2)C3)cc(CO)n1 [Example 12]
17 | < 0.003 µM | 14.5% | Cc1cc(N2CCN(C[C@H]3CN(c4ccc(C#N)c5ncccc45)C[C@@H](C)O3)CC2)cc(N)n1 [Example 40, 5-[(2S,6R)-2-[[4-(2-amino-6-methyl-4-pyridyl)piperazin-1-yl]methyl]-6-methyl-morpholin-4-yl]quinoline-8-carbonitrile]
18 | 0.033 µM | 7.5% | Cc1cc(NC2CCN(C[C@H]3CN(c4ccc(C#N)c5ncccc45)C[C@@H](C)O3)CC2)cc(CO)n1 [Example 5]
19 | 0.09 µM | 17% | CC(O)c1cc(N2CC3(CN(C[C@H]4CN(c5ccc(C#N)c6ncccc56)C[C@@H](C)O4)C3)C2)ccn1 (stereo partly drawn) [Example 46, 5-[(2S,6R)-2-[[2-[2-(1-hydroxyethyl)-4-pyridyl]-2,6-diazaspiro[3.3]heptan-6-yl]methyl]-6-methyl-morpholin-4-yl]quinoline-8-carbonitrile]
